One assay addresses T1, FAAH (Mus musculus, UniProt O08914).
T1 construct: Proteomes (mouse brain membrane fraction or cell lysates); from tissue; host or cells: mouse brain membrane fraction (or cell lysates)
T1 sequence (O08914 1-579): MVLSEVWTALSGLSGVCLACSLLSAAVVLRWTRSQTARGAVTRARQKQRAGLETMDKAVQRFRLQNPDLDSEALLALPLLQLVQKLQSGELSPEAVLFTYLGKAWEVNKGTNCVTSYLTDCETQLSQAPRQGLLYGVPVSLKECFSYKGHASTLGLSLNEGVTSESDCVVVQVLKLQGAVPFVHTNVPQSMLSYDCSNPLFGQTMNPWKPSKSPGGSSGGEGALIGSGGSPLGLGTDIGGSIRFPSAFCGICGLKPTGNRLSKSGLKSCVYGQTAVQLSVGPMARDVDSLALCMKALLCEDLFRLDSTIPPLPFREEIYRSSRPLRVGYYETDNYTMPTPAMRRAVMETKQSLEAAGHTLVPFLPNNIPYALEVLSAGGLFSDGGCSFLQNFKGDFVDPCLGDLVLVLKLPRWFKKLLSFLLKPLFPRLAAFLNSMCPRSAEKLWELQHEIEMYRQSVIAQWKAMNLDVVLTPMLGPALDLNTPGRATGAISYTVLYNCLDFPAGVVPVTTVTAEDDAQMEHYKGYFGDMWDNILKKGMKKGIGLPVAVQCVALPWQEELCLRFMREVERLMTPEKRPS
The experiment in a line: In vitro competitive activity-based protein profiling (mouse), FAAH gel band. Format: biochemical. Particulars: for IC50: mouse; for inhibition at 1 µM: read-out: FAAH % inh. 1 μM. The essentials:
(§1)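 Residual enzyme activity is taken from in-gel fluorescence after SDS-PAGE. Proteome from mouse brain membranes or cell lysates (total protein 1.0 mg/mL) sees inhibitor for 30 min, then FP-Rh or HT-01 probe (50 μM DMSO stock) for 30 min, both steps at 37 °C.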

For assay [1], the target named is T2, MAGL (Mus musculus, UniProt O35678).
T2 construct: Proteomes (mouse brain membrane fraction or cell lysates); from tissue; host or cells: mouse brain membrane fraction (or cell lysates)
T2 sequence (O35678 1-303): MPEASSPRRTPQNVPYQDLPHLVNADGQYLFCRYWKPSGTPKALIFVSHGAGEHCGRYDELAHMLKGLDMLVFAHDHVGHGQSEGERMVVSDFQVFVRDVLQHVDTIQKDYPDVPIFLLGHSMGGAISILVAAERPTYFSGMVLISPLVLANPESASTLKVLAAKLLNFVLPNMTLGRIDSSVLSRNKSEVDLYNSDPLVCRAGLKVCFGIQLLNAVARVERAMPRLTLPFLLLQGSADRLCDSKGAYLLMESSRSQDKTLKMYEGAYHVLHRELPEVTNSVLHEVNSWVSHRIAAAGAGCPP
The experiment in a line: Mouse brain proteomes from inhibitor treated mice (oral gavage, sacrificed 4 h after administration). Format: in vivo. Particulars: read-out: MAGL % inh. 5 mg/kg. The protocol: Compounds are tested to assess their MAGL and other serine hydrolase activity using the following in vitro and in vivo assays.
Preparation of Mouse Brain Proteomes from Inhibitor Treated Mice.
Inhibitors were administered to wild-type C57Bl/6J by oral gavage in a vehicle of polyethylene glycol. Each animal was sacrificed 4 h following administration and brain proteomes were prepared and analyzed according to previously established methods (See Niphakis, M. J., et al. (2011) ACS Chem. Neurosci. and Long, J. Z., et al. Nat. Chem. Biol. 5:37-44)

The target of assay [2] is T2, MAGL. Nature of the assay: In vitro competitive activity-based protein profiling (mouse), MAGL gel band. Format: biochemical. To be noted: for IC50: mouse; for inhibition at 1 µM: read-out: MAGL % inh. 1 μM. The essentials:
as §1

Structures are written as SMILES.

Broadly, the IC50 is the midpoint of a concentration-inhibition curve. A high value points to lower potency. Take `CC(=O)Nc1ccn(C(=O)N2CCN(Cc3ccc(Cl)cc3N3CC4CCC(C3)O4)CC2)n1` [Example 51, N-(1-(4-(2-(8-oxa-3-azabicyclo[3.2.1]octan-3-yl)-4-chlorobenzyl)piperazine-1-carbonyl)-1H-pyrazol-3-yl)acetamide]: at FAAH, the IC50 fell in the range of 1 to 10 µM and the inhibition at 1 µM fell in the range of 0 to 25%. In addition, the inhibition at 5 mg/kg at MAGL [1] lay within 25 to 50%. Moreover, at MAGL [2], the IC50 is at most 100 nM and the inhibition at 1 µM is at least 75%.

As for `CC(=O)Nc1ccn(C(=O)N2CCN(Cc3ccc(Cl)cc3N3CCN(C(C)=O)CC3)CC2)n1` [Example 53, N-(1-(4-(2-(4-acetylpiperazin-1-yl)-4-chlorobenzyl)piperazine-1-carbonyl)-1H-pyrazol-3-yl)acetamide], at FAAH, the IC50 lay in the range of 1 to 10 µM and the inhibition at 1 µM lay in the range of 0 to 25%. In addition, on MAGL [1], the inhibition at 5 mg/kg fell in the range of 0 to 25%. Further, on MAGL [2], the IC50 is at most 100 nM and the inhibition at 1 µM was at least 75%.

Turning to `CC(=O)Nc1ccn(C(=O)N2CCN(Cc3ccc(Cl)cc3N3CCC4(CC3)CCN(S(C)(=O)=O)C4)CC2)n1` [Example 54, N-(1-(4-(4-chloro-2-(2-(methylsulfonyl)-2,8-diazaspiro[4.5]decan-8-yl)benzyl)piperazine-1-carbonyl)-1H-pyrazol-3-yl)acetamide], on FAAH, the IC50 lay in the range of 1 to 10 µM and the inhibition at 1 µM lay within 0 to 25%. Further, the inhibition at 5 mg/kg at MAGL [1] was in the range of 0 to 25%. On MAGL [2], the IC50 was at most 100 nM and the inhibition at 1 µM is at least 75%.

As for `CC(=O)Nc1ccn(C(=O)N2CCN(Cc3ccc(Cl)cc3N3CCC4(C3)CN(S(C)(=O)=O)C4)CC2)n1` [Example 55, N-(1-(4-(4-chloro-2-(2-(methylsulfonyl)-2,6-diazaspiro[3.4]octan-6-yl)benzyl)piperazine-1-carbonyl)-1H-pyrazol-3-yl)acetamide], the IC50 on FAAH was 1 to 10 µM; at MAGL [2], at most 100 nM. In addition, the inhibition at 1 µM on FAAH was 0 to 25%; on MAGL [2], at least 75%. For the same compound, the inhibition at 5 mg/kg at MAGL [1] was in the range of 0 to 25%.

As to `CC(=O)Nc1ccn(C(=O)N2CCN(Cc3ccc(Cl)cc3N3CCC4(CCOCC4)C3)CC2)n1` [Example 56, N-(1-(4-(4-chloro-2-(8-oxa-2-azaspiro[4.5]decan-2-yl)benzyl)piperazine-1-carbonyl)-1H-pyrazol-3-yl)acetamide], the figures for the IC50 at FAAH and at MAGL [2] were 1 to 10 µM and at most 100 nM, respectively. For the same compound, the results for the inhibition at 1 µM on FAAH and on MAGL [2] were 0 to 25% and at least 75%, respectively. For the same compound, the inhibition at 5 mg/kg on MAGL [1] is 25 to 50%.

Regarding `CC(=O)Nc1ccn(C(=O)N2CCN(Cc3ccc(Cl)cc3N3CCN(C4CC4)CC3)CC2)n1` [Example 58, N-(1-(4-(4-chloro-2-(4-cyclopropylpiperazin-1-yl)benzyl)piperazine-1-carbonyl)-1H-pyrazol-3-yl)acetamide], the IC50 is 1 to 10 µM at FAAH and at most 100 nM at MAGL [2]. The inhibition at 1 µM is 0 to 25% at FAAH and at least 75% at MAGL [2]. Further, the inhibition at 5 mg/kg at MAGL [1] was at least 75%.

For the compound `CC(=O)Nc1ccn(C(=O)N2CCN(Cc3ccc(Cl)cc3N3CC4COCC4C3)CC2)n1` (stereo not shown) [Example 60, N-(1-(4-(4-chloro-2-(dihydro-1H-furo[3,4-c]pyrrol-5(3H,6H,6aH)-yl)benzyl)piperazine-1-carbonyl)-1H-pyrazol-3-yl)acetamide], the IC50 at FAAH was 1 to 10 µM; on MAGL [2] it was at most 100 nM. The inhibition at 1 µM was 0 to 25% on FAAH and at least 75% on MAGL [2]. Also, the inhibition at 5 mg/kg at MAGL [1] is 0 to 25%.

For `CC(=O)Nc1ccn(C(=O)N2CCC3(CCCN3Cc3cc(N4CCCC4)cc(C(F)(F)F)c3)CC2)n1` [Example 61, N-(1-(1-(3-(pyrrolidin-1-yl)-5-(trifluoromethyl)benzyl)-1,8-diazaspiro[4.5]decane-8-carbonyl)-1H-pyrazol-3-yl)acetamide], at FAAH, the concentration for half-maximal inhibition (IC50) lay in the range of 1 to 10 µM and the inhibition at 1 µM lay within 0 to 25%. Moreover, the inhibition at 5 mg/kg on MAGL [1] fell in the range of 0 to 25%. Also, at MAGL [2], the IC50 was at most 100 nM and the inhibition at 1 µM was at least 75%.

For the compound `CC(=O)Nc1ccn(C(=O)N2CCC3(CCCN3Cc3cc(N4C5CCC4COC5)cc(C(F)(F)F)c3)CC2)n1` [Example 62, N-(1-(1-(3-(3-oxa-8-azabicyclo[3.2.1]octan-8-yl)-5-(trifluoromethyl)benzyl)-1,8-diazaspiro[4.5]decane-8-carbonyl)-1H-pyrazol-3-yl)acetamide], on FAAH, the 50% inhibitory concentration (IC50) lay in the range of 1 to 10 µM and the inhibition at 1 µM lay in the range of 0 to 25%. In addition, the inhibition at 5 mg/kg at MAGL [1] lay in the range of 0 to 25%. At MAGL [2], the IC50 is at most 100 nM and the inhibition at 1 µM is at least 75%.

As for `CC(=O)Nc1ccn(C(=O)N2CCC3(CCCN3Cc3cc(Cl)cc(N4CCCC4)c3)CC2)n1` [Example 63, N-(1-(1-(3-chloro-5-(pyrrolidin-1-yl)benzyl)-1,8-diazaspiro[4.5]decane-8-carbonyl)-1H-pyrazol-3-yl)acetamide], the figures for the 50% inhibitory concentration (IC50) on FAAH and on MAGL [2] were 1 to 10 µM and at most 100 nM, respectively. The values for the inhibition at 1 µM at FAAH and on MAGL [2] were 0 to 25% and at least 75%, respectively. Further, on MAGL [1], the inhibition at 5 mg/kg was in the range of 25 to 50%.

In the case of `CC(=O)Nc1ccn(C(=O)N2CCC3(CCCN3Cc3cc(N4CC5CN(C(C)=O)CC5C4)cc(C(F)(F)F)c3)CC2)n1` (stereo not shown) [Example 69, N-(1-(1-(3-(5-acetylhexahydropyrrolo[3,4-c]pyrrol-2(1H)-yl)-5-(trifluoromethyl)benzyl)-1,8-diazaspiro[4.5]decane-8-carbonyl)-1H-pyrazol-3-yl)acetamide], on FAAH, the IC50 lay in the range of 1 to 10 µM and the inhibition at 1 µM lay in the range of 0 to 25%. Also, on MAGL [1], the inhibition at 5 mg/kg was 0 to 25%. For the same compound, at MAGL [2], the IC50 lay in the range of 100 to 1000 nM and the inhibition at 1 µM is at least 75%.

Turning to `CC(=O)Nc1ccn(C(=O)N2CCN(Cc3ccc(C(F)(F)F)cc3OC3CCN(C4CC4)CC3)CC2)n1` [Example 71, N-(1-(4-(2-(1-cyclopropylpiperidin-4-yloxy)-4-(trifluoromethyl)benzyl)piperazine-1-carbonyl)-1H-pyrazol-3-yl)acetamide], on FAAH, the IC50 was 1 to 10 µM and the inhibition at 1 µM fell in the range of 0 to 25%. In addition, the inhibition at 5 mg/kg on MAGL [1] was 25 to 50%. In addition, on MAGL [2], the IC50 was at most 100 nM and the inhibition at 1 µM is at least 75%.

`CC(=O)Nc1ccn(C(=O)N2CCN(Cc3cc(OC4CCN(C5CC5)CC4)cc(C(F)(F)F)c3)CC2)n1` [Example 72, N-(1-(4-(3-(1-cyclopropylpiperidin-4-yloxy)-5-(trifluoromethyl)benzyl)piperazine-1-carbonyl)-1H-pyrazol-3-yl)acetamide]: at FAAH, the IC50 was in the range of 1 to 10 µM and the inhibition at 1 µM is 0 to 25%. Also, the inhibition at 5 mg/kg on MAGL [1] is 0 to 25%. Also, on MAGL [2], the IC50 is at most 100 nM and the inhibition at 1 µM was at least 75%.

Consider `CC(=O)Nc1ccn(C(=O)N2CCN(Cc3ccc(C(F)(F)F)cc3Oc3cncnc3)CC2)n1` [Example 73, N-(1-(4-(2-(pyrimidin-5-yloxy)-4-(trifluoromethyl)benzyl)piperazine-1-carbonyl)-1H-pyrazol-3-yl)acetamide], for which the IC50 at FAAH was 1 to 10 µM; on MAGL [2] it was at most 100 nM. Further, the results for the inhibition at 1 µM on FAAH and on MAGL [2] were 0 to 25% and at least 75%, respectively. Also, at MAGL [1], the inhibition at 5 mg/kg is 0 to 25%.

For the origin of these results see patent US10519134B2, “Pyrazole compounds and methods of making and using same” (Lundbeck La Jolla Research Center, Inc., priority 2015, dated 2019).
